This is an account of results in patent US4480118A, “Carboxylic acid ester and an insecticidal and/or acaricidal composition containing the same” (priority 1981, dated 1984).

One data set relates to tobacco cutworm. The experiment in a line: Insecticidal activity against tobacco cutworm. It counts as in vivo. Particulars: 24 h, read-out: LC50 (median lethal concentration), treated artificial diet, third-instar larvae, 24 hours. The method, then: An artificial diet (15 g) for tobacco cutworm was wet with 2 ml of the prescribed aqueous dilution of an emulsifiable concentrate obtained in Preparation Example 2 or of that obtained from reference compounds. The diet thus treated was placed in a polyethylene cup of 11 cm in diameter.

The subject of data set [1] is northern house mosquito. The experiment in a line: Activity of oil spray against adult female northern house mosquito (glass chamber). It counts as in vivo. Particulars: for mortality, Northern house mosquito: in vivo, 24 h; for KT50 (50% knockdown time), Northern house mosquito: oil spray 0.5 ml, 10 minutes exposure. The method, then:
(§1) 0.1 Part of each compound Nos. 10, 12, 15, 17, 18, 19, 22, 23 and 29 of this invention is dissolved in deodorized kerosene and made up to 100 parts with kerosene to obtain an oil spray.
(§2) Ten adult houseflies and ten adult female northern house mosquitos were released in a glass chamber, 70×70×70 cm in size. An oil spray preparation (0.5 ml) obtained in Preparation Example 1 was sprayed inside the chamber and the insects were exposed to the descending mist for 10 minutes, during which time the number of knocked-down insects was counted at predetermined time intervals to determine the 50% knockdown time (KT50). On the following day, the dead and alive insects were observed.

Data set [2] concerns housefly. In words: Insecticidal activity against housefly (Topical application method). Type of data set: in vivo. The settings on record: dorsal thorax, adult female, 24 hours. The method, then: The present compounds and the reference compounds were diluted with acetone to prescribed concentrations. Each 0.5 μl of the diluted samples was applied topically with a microsyringe onto the dorsal thorax of an adult female housefly. The flies were fed and observed for the number of dead and alive insects after 24 hours. LD50 (median lethal dose) was calculated from the mortalities at each dosage by probit method.

Data set [3] relates to housefly. In words: Insecticidal activity against housefly (Filter paper bait and contact method). It counts as in vivo. Particulars: Musca domestica; 500 ppm, 48 hours, adult female houseflies; read-out: Mortality. Here is the method:
Each 20 parts of the present compounds No. 1 to No. 29, 10 parts of an emulsifier (Sorpol 3005X; trademark for Toho Chemical Co.) and 70 parts of xylene are thoroughly mixed by stirring to obtain an emulsifiable concentrate of each compound.
A piece of filter paper, 5.5 cm in diameter, was laid on the bottom of a polyethylene cup of the identical inner diameter. An emulsifiable concentrate prepared in the same manner as in Preparation Example 2 was diluted with water. To the filter paper, was added dropwise 0.7 ml of the diluted sample (500 ppm in concentration). Sucrose (30 mg) was placed on the filter paper to serve as bait. Ten adult female houseflies were released into the cup, closed with a cover, and observed for the number of dead and alive insects after 48 hours to calculate the mortality (2 replications).

Data set [4] deals with housefly. In words: Activity of oil spray against adult housefly (glass chamber). Type of data set: in vivo. The settings on record: oil spray 0.5 ml, 10 minutes exposure; for mortality, House fly: observed on the following day, 1440 min. The method, then: as §1, §2
For another data set, the system named is green rice leafhopper. The experiment in a line: Insecticidal activity against green rice leafhopper. The settings on record: Nephotettix cincticeps, 24 h.
The subject of data set [5] is northern house mosquito. The experiment in a line: Mosquito coil knockdown of adult female northern house mosquitos. It counts as in vivo. The method, then:
Each 0.6 g of the present compounds Nos. 10, 16 and 27 is dissolved in 20 ml of methanol and uniformly mixed with 99.4 g of a carrier for mosquito coils (a mixture of Tabu powder, pyrethrum marc and wood powder in a proportion of 3:5:1) by thorough stirring. After evaporation of methanol and addition of 150 ml of water, the mixture is thoroughly kneaded, then molded, and dried to obtain a mosquito coil.
About 50 adult female northern house mosquitos were released into a glass chamber, 70×70×70 cm, and a battery-operated small fan (diameter of rotation of the vane: 13 cm) disposed in the cabinet was operated. A mosquito coil obtained in Preparation Example 6 was ignited at both ends and placed at the center of bottom of the chamber. After 20 minutes, the number of knocked down insects was counted.

Converted amounts (≈) assume the structure as drawn. Like-named read-outs stand apart in the source and are kept apart here.

As usually defined, the mortality is the percentage killed. As for `CC1(C)[C@@H](C(=O)OC(C#N)c2cccc(Oc3ccccc3)c2)[C@@]12Cc1ccccc1O2` (relative stereo) [Compound 18], the LC50 in the data set on tobacco cutworm worked out at 1.8 µg/mL (≈ 4.23 µM). In the data set on northern house mosquito [1], the “mortality, Northern house mosquito” value stood at 100% and the “KT50 (50% knockdown time), Northern house mosquito” value was 456 s. Also, in the data set with housefly [2], the “LD50 (median lethal dose)” value is 0.0061 μg/female. For the same compound, in the data set with housefly [3], the mortality at 500 ppm amounted to 100%. In addition, in the data set on housefly [4], the “KT50 (50% knockdown time), House fly” value is 600 s and the “mortality, House fly” value was 10%.
With `CC1(C)C(C(=O)OC(C#N)c2ccc(F)c(Oc3ccccc3)c2)C12Cc1ccccc1C2` (stereo not drawn) [Compound 7], the LC50 in the data set on tobacco cutworm was 1.8 µg/mL (≈ 4.08 µM). Also, the “LD50 (median lethal dose)” value in the data set with housefly [2] amounted to 0.0044 μg/female. Besides, the mortality at 500 ppm in the data set with housefly [3] was found to be 100%. Also, the mortality at 50 ppm in the data set with green rice leafhopper (read-out: Percent mortality days after spraying: 0), with green rice leafhopper (read-out: Percent mortality days after spraying: 3) and in the data set with green rice leafhopper (read-out: Percent mortality days after spraying: 7) was 100% throughout.
Regarding `C#CCC1=C(C)C(OC(=O)C2C(C)(C)C23Cc2ccccc2C3)CC1=O` (stereo not drawn) [Compound 10], in the data set with northern house mosquito [1], the “mortality, Northern house mosquito” value came to 100% and the “KT50 (50% knockdown time), Northern house mosquito” value was 320 s. Besides, the mortality at 500 ppm in the data set on housefly [3] is 100%. In addition, in the data set with housefly [4], the “KT50 (50% knockdown time), House fly” value was found to be 210 s and the “mortality, House fly” value is on record as 30%. Further, the “Percent knocked down insects after 20 minutes” value (from here on “Percent knocked down insects”) in the data set on northern house mosquito [5] is listed as 94%.
As to `C=CCC1=C(C)C(OC(=O)C2C(C)(C)C23Cc2ccccc2C3)CC1=O` (stereo not drawn) [Compound 15], in the data set on northern house mosquito [1], the “mortality, Northern house mosquito” value is recorded as 95% and the “KT50 (50% knockdown time), Northern house mosquito” value worked out at 300 s. Besides, the mortality at 500 ppm in the data set with housefly [3] worked out at 100%. Further, in the data set with housefly [4], the “KT50 (50% knockdown time), House fly” value was 250 s and the “mortality, House fly” value was found to be 20%. Further, the “Percent knocked down insects” value with northern house mosquito [5] is 90%.
As to `C#CC(OC(=O)C1C(C)(C)C12Cc1ccc(F)cc1C2)C(C)=CCC` (stereo not drawn) [Compound 27], the mortality at 500 ppm in the data set with housefly [3] was 100%. Also, in the data set on northern house mosquito [5], the “Percent knocked down insects” value stood at 10%.
